The values that follow come from US9682976B2, “Protein kinase C inhibitors and uses thereof” (Rigel Pharmaceuticals, Inc., priority 2012, dated 2017).

Where only a bound is given, the exact number is not on record here.

The assay relates to PKC mediated IL-2 production. The experiment in a line: IL-2 ELISA, human primary T cell, anti CD3+CD28+. The assay is classed as cell-based. The note with it: human primary T cells stimulated with αCD3 and αCD28, 24 hours. In a few lines:
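Human peripheral blood T cells, pre-expanded with αCD3/αCD28 and IL-2 and then washed free of IL-2, were pre-incubated with compound for 1 h at 37° C. They were then stimulated on plates coated with […] αCD3 and 5 μg/ml αCD28, or with 0.5 ng/ml PMA plus 0.1 uM ionomycin in the counter assay. IL-2 in supernatants was measured by ELISA after 24 h.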

With `COc1cc(-n2nnnc2C)cc(Nc2ncc(F)c(N[C@@H]3C[C@@H]4CCCN4C(C)(C)C3)n2)c1F` [Compound 242, 5-fluoro-N2-(2-fluoro-3-methoxy-5-(5-methyl-1H-tetrazol-1-yl)phenyl)-N4-((7R,8aS)-octahydro-5,5-dimethylindolizin-7-yl)pyrimidine-2,4-diamine], under “Homo sapiens, T-cell, 24 h”, the EC50 is below 100 nM.

`CC1(C)C[C@H](Nc2nc(Nc3ccc(OC4COC4)c(C#N)c3)ncc2F)C[C@@H]2CCCN21` [Compound 179, 5-(4-((7R,8aS)-5,5-dimethyloctahydroindolizin-7-ylamino)-5-fluoropyrimidin-2-ylamino)-2-(oxetan-3-yloxy)benzonitrile] showed an EC50 (Homo sapiens, T-cell, 24 h) of 100 to 500 nM.

`Cn1nc2n(c1=O)-c1cc(Nc3ncc(F)c(N[C@@H]4C[C@@H]5CCCN5C(C)(C)C4)n3)ccc1OCC2(C)O` (single isomer, unassigned) [Compound 294] gave an EC50 of 500 to 1000 nM.

`CCOC(=O)C(C)Oc1cc(F)c(Nc2ncc(F)c(N[C@@H]3C[C@@H]4CCCN4C(C)(C)C3)n2)cc1-n1nnn(C)c1=O` (stereo partly drawn) [Compound 184, ethyl 2-(4-((4-(((7R,8aS)-5,5-dimethyloctahydroindolizin-7-yl)amino)-5-fluoropyrimidin-2-yl)amino)-5-fluoro-2-(4-methyl-5-oxo-4,5-dihydro-1H-tetrazol-1-yl)phenoxy)propanoate] came in with an EC50 (Homo sapiens, T-cell, 24 h) of 100 to 500 nM.

With `CC1(C)CC(Nc2nc(Nc3cc(-n4cnnn4)c(C4CC4)cc3F)ncc2F)CC2CCCN21` (single isomer, unassigned) [Compound 54, N^2-(4-cyclopropyl-2-fluoro-5-(1H-tetrazol-1-yl)phenyl)-5-fluoro-N^4-(octahydro-5,5-dimethylindolizin-7-yl)pyrimidine-2,4-diamine], the EC50 (Homo sapiens, T-cell, 24 h) is below 100 nM.

As for `Cn1nnn(-c2cc(Nc3ncc(F)c(N[C@@H]4CCN5C(CCC5(C)C)C4)n3)c(F)cc2C2CC2)c1=O` (mixture of isomers) [Compound 25], the half-maximal effective concentration (EC50) lay within 1000 to 10000 nM.

In turn, `CC1(C)CC[C@H]2C[C@@H](Nc3nc(Nc4ccc(N5CCOCC5)c(OC(F)F)c4)ncc3F)CCN21` [Compound 297] showed an EC50 (Homo sapiens, T-cell, 24 h) of 100 to 500 nM.

The compound `Cc1nnnn1-c1cc(Nc2ncc(Cl)c(N[C@@H]3C[C@@H]4CCCN4C(C)(C)C3)n2)ccc1F` [Compound 149, 5-chloro-N4-((7R,8aS)-5,5-dimethyloctahydroindolizin-7-yl)-N2-(4-fluoro-3-(5-methyl-1H-tetrazol-1-yl)phenyl)pyrimidine-2,4-diamine] yielded an EC50 (Homo sapiens, T-cell, 24 h) below 100 nM.

In the case of `CC1(C)C[C@H](Nc2nc(Nc3ccc(O)c(-n4cnnn4)c3)ncc2F)C[C@@H]2CCCN21` [Compound 196, 4-((4-(((7R,8aS)-5,5-dimethyloctahydroindolizin-7-yl)amino)-5-fluoropyrimidin-2-yl)amino)-2-(1H-tetrazol-1-yl)phenol], the EC50 (Homo sapiens, T-cell, 24 h) was in the range of 100 to 500 nM.

As for `CC1(C)C[C@H](Nc2nc(Nc3ccc(NCC(O)CCl)c(C(F)(F)F)c3)ncc2F)C[C@@H]2CCCN21` (stereo partly drawn) [Compound 321, 1-(4-(4-((7R,8aS)-octahydro-5,5-dimethylindolizin-7-ylamino)-5-fluoropyrimidin-2-ylamino)-2-(trifluoromethyl)phenylamino)-3-chloropropa-2-ol], the EC50 (Homo sapiens, T-cell, 24 h) was 100 to 500 nM.

Under “Homo sapiens, T-cell, 24 h”, `COCCOc1cc(F)c(Nc2ncc(F)c(N[C@@H]3C[C@@H]4CCCN4C(C)(C)C3)n2)cc1-n1nnn(C)c1=O` [Compound 158, 1-(5-((4-(((7R,8aS)-5,5-dimethyloctahydroindolizin-7-yl)amino)-5-fluoropyrimidin-2-yl)amino)-4-fluoro-2-(2-methoxyethoxy)phenyl)-4-methyl-1,4-dihydro-5H-tetrazol-5-one] had an EC50 of 100 to 500 nM.

Where the note is “Homo sapiens, T-cell, 24 h”, `Cn1nnn(-c2cc(Nc3ncc(F)c(N[C@@H]4C[C@@H]5CCCN5C(C)(C)C4)n3)c(F)cc2OC2CC(OCc3ccccc3)C2)c1=O` (stereo partly drawn) [Compound 225, 1-(2-(3-(benzyloxy)cyclobutoxy)-5-((4-(((7R,8aS)-5,5-dimethyloctahydroindolizin-7-yl)amino)-5-fluoropyrimidin-2-yl)amino)-4-fluorophenyl)-4-methyl-1,4-dihydro-5H-tetrazol-5-one] came in with an EC50 of 100 to 500 nM.

Compound `CC1(C)C[C@H](Nc2nc(Nc3ccc(N4CCN(S(C)(=O)=O)CC4)c(C#N)c3)ncc2F)C[C@@H]2CCCN21` [Compound 103, 5-((4-(((7R,8aS)-5,5-Dimethyloctahydroindolizin-7-yl)amino)-5-fluoropyrimidin-2-yl)amino)-2-(4-(methylsulfonyl)piperazin-1-yl)benzonitrile] gave an EC50 (Homo sapiens, T-cell, 24 h) of 100 to 500 nM.

As to `CC1(C)Oc2ccc(Nc3ncc(F)c(N[C@H]4C[C@H]5CCCN5C(C)(C)C4)n3)cc2-n2nnnc21` [Compound 1, N2-(4,4-dimethyl-4H-benzo[b]tetrazolo[1,5-d][1,4]oxazin-8-yl)-5-fluoro-N4-(octahydro-5,5-dimethylindolizin-7-amine)pyrimidine-2,4-diamine], the EC50 is 100 to 500 nM.

For the compound `CC1(C)CC[C@H]2C[C@@H](Nc3nc(Nc4ccc(OC5CC(O)C5)c(C(F)(F)F)c4)ncc3F)CCN21` (stereo partly drawn) [Compound 305, 3-(4-((4-(((7S,8aS)-3,3-Dimethyloctahydroindolizin-7-yl)amino)-5-fluoropyrimidin-2-yl)amino)-2-(trifluoromethyl)phenoxy)cyclobutan-1-ol], where the note is “Homo sapiens, T-cell, 24 h”, the EC50 lay within 100 to 500 nM.

Under “Homo sapiens, T-cell, 24 h”, `CC1(C)C[C@H](Nc2nc(Nc3cc(F)cc(S(F)(F)(F)(F)F)c3)ncc2F)C[C@@H]2CCCN21` [Compound 72] gave a concentration for a half-maximal effect (EC50) of 500 to 1000 nM.

For the setting “Homo sapiens, T-cell, 24 h”, `Cn1nc2n(c1=O)-c1cc(Nc3ncc(F)c(N[C@@H]4C[C@@H]5CCCN5C(C)(C)C4)n3)ccc1OC2(C)C` [Compound 248, 5-fluoro-N2-(1H-2,4-dihydron-2,4,4-trimethyl-[1,2,4]triazolo[3,4-c][1,4]benzoxazin-1-one-8-yl)-N4-((7R,8aS)-octahydro-5,5-dimethylindolizin-7-yl)pyrimidine-2,4-diamine] came in with an EC50 of 100 to 500 nM.

`Cn1nnn(-c2cc(Nc3ncc(F)c(N[C@@H]4C[C@@H]5C[C@@H](F)CN5C(C)(C)C4)n3)c(F)cc2C2CC2)c1=O` [Compound 64, 1-(5-(4-((2R,7R,8aR)-2-fluoro-octahydro-5,5-dimethylindolizin-7-ylamino)-5-fluoropyrimidin-2-ylamino)-2-cyclopropyl-4-fluorophenyl)-4-methyl-1H-tetrazol-5(4H)-one] showed an EC50 (Homo sapiens, T-cell, 24 h) of 100 to 500 nM.

As to `Cn1nnn(-c2cc(Nc3ncc(F)c(N[C@@H]4C[C@@H]5C[C@H](F)CN5C(C)(C)C4)n3)c(F)cc2C2CC2)c1=O` [Compound 67, 1-(5-(4-((2S,7R,8aR)-2-fluoro-octahydro-5,5-dimethylindolizin-7-ylamino)-5-fluoropyrimidin-2-ylamino)-2-cyclopropyl-4-fluorophenyl)-4-methyl-1H-tetrazol-5(4H)-one], the EC50 (Homo sapiens, T-cell, 24 h) is 100 to 500 nM.

Consider `Cc1ccc(Nc2ncc(F)c(N[C@@H]3C[C@@H]4CCCN4C(C)(C)C3)n2)cc1-n1nnn(CCO)c1=O` [Compound 275, 1-(5-(4-((7R,8aS)-octahydro-5,5-dimethylindolizin-7-ylamino)-5-fluoropyrimidin-2-ylamino)-2-methylphenyl)-4-(2-hydroxyethyl)-1H-tetrazol-5(4H)-one], for which, under “Homo sapiens, T-cell, 24 h”, the EC50 is 100 to 500 nM.

With `CO[C@@H](C)COc1cc(F)c(Nc2ncc(F)c(N[C@@H]3C[C@@H]4CCCN4C(C)(C)C3)n2)cc1-n1nnn(C)c1=O` [Compound 233, 1-(5-((4-(((7R,8aS)-5,5-dimethyloctahydroindolizin-7-yl)amino)-5-fluoropyrimidin-2-yl)amino)-4-fluoro-2-((S)-2-methoxypropoxy)phenyl)-4-methyl-1,4-dihydro-5H-tetrazol-5-one], under “Homo sapiens, T-cell, 24 h”, the EC50 was 100 to 500 nM.

As to `CC1(C)C[C@H](Nc2nc(Nc3cc(-n4cnnn4)c(C4CC4)cc3F)ncc2F)C[C@@H]2CCCN21` (racemic) [Compound 53, (±)-N^2-(4-cyclopropyl-2-fluoro-5-(1H-tetrazol-1-yl)phenyl)-5-fluoro-n^4-(octahydro-5,5-dimethylindolizin-7-yl)pyrimidine-2,4-diamine], the EC50 (Homo sapiens, T-cell, 24 h) is below 100 nM.

The compound `CC1(C)CC(Nc2nc(Nc3ccc(OC4CCOCC4)c(C#N)c3)ncc2F)CC2CCCN21` (stereo not drawn) [Compound 41, 5-(5-fluoro-4-(octahydro-5,5-dimethylindolizin-7-ylamino)pyrimidin-2-ylamino)-2-(tetrahydro-2H-pyran-4-yloxy)benzonitrile] yielded an EC50 (Homo sapiens, T-cell, 24 h) of 100 to 500 nM.

Where the note is “Homo sapiens, T-cell, 24 h”, `CC(O)c1cc(F)c(Nc2ncc(F)c(N[C@@H]3C[C@@H]4CCCN4C(C)(C)C3)n2)cc1-n1nnn(C)c1=O` (stereo partly drawn) [Compound 94] displayed an EC50 of 100 to 500 nM.

Under “Homo sapiens, T-cell, 24 h”, `CC1(C)C[C@H](Nc2nc(Nc3ccc(OCC4CCO4)c(C#N)c3)ncc2F)C[C@@H]2CCCN21` (stereo partly drawn) [Compound 176, 5-(4-((7R,8aS)-5,5-dimethyloctahydroindolizin-7-ylamino)-5-fluoropyrimidin-2-ylamino)-2-(oxetan-2-ylmethoxy)benzonitrile] yielded an EC50 of 100 to 500 nM.

Compound `COc1ccc(Nc2ncc(F)c(N[C@@H]3C[C@@H]4CCCN4C(C)(C)C3)n2)cc1-n1nnn(CCO)c1=O` [Compound 280, 1-(5-(4-((7R,8aS)-octahydro-5,5-dimethylindolizin-7-ylamino)-5-fluoropyrimidin-2-ylamino)-2-methoxyphenyl)-4-(2-hydroxyethyl)-1H-tetrazol-5(4H)-one] came in with an EC50 (Homo sapiens, T-cell, 24 h) of 500 to 1000 nM.

Where the note is “Homo sapiens, T-cell, 24 h”, `Cn1nnn(-c2cc(Nc3ncc(Cl)c(N[C@@H]4C[C@@H]5CCCN5C(C)(C)C4)n3)c(F)cc2C2CC2)c1=O` [Compound 148, 1-(5-((5-chloro-4-(((7R,8aS)-5,5-dimethyloctahydroindolizin-7-yl)amino)pyrimidin-2-yl)amino)-2-cyclopropyl-4-fluorophenyl)-4-methyl-1,4-dihydro-5H-tetrazol-5-one] returned an EC50 below 100 nM.
